Results from patent US20070272777A1 (priority 2005, published 2007).
Like-named read-outs stand apart in the source and are kept apart here.

Legend:
[1] = From the text: FIG. 6B illustrates this method. […] The standard may be prepared by mixing specific amounts of Type C and Form II and determining the X-ray diffraction pattern. This method is also illustrated in FIGS. 6A and B which are used to calculate the ratio between the heights of the peaks in the known mixtures. […] A round aluminum sample holder with zero background was used. […] Running in spin/oscillate mode. All peak positions are reported with an error of ±0.2 degrees two theta.
[2] = disclosed in WO 05/058835; cited from earlier work
[3] = biological target: serotonin 5-HT2A receptor (Homo sapiens, UniProt P28223); conditions: cited from earlier work
serotonin reuptake site = serotonin reuptake site (Homo sapiens, UniProt P31645); conditions: cited from earlier work
[4] = biological target: T1, serotonin 5-HT1A receptor (Homo sapiens, UniProt P08908); conditions: cited from earlier work
T1 sequence (P08908 1-422): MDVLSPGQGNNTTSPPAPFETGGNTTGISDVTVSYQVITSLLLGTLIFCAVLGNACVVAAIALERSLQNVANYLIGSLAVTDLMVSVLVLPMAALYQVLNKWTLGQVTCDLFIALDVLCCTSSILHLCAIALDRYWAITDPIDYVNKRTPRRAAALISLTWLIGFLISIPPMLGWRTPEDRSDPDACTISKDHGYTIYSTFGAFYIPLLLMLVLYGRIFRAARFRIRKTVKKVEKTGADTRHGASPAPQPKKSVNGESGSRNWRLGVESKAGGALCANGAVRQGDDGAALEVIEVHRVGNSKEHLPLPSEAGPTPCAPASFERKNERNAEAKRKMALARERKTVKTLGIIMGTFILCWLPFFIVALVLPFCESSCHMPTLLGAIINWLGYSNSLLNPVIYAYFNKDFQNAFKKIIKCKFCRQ

histamine H1 receptor = histamine H1 receptor (Homo sapiens, UniProt P35367); conditions: cited from earlier work
[5] = biological target: T2, serotonin 5-HT2C receptor (Homo sapiens, UniProt P28335); conditions: cited from earlier work
T2 sequence (P28335 33-458): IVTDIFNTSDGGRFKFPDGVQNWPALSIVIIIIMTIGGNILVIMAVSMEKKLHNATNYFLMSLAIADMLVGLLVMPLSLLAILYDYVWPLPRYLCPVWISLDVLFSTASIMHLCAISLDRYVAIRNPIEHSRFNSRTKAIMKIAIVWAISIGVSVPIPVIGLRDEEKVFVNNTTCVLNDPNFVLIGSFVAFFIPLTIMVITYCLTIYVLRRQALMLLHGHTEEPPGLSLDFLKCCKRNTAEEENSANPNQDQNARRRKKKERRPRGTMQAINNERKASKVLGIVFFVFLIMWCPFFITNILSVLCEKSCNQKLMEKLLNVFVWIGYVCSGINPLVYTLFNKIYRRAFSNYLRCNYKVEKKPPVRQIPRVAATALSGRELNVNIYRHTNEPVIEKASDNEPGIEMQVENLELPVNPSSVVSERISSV

α1-adrenergic receptor = conditions: cited from earlier work
[6] = system: cholinergic muscarinic receptors; conditions: cited from earlier work
[7] = prepared by recrystallization from ethanol or heating hydrate at 80° C; according to WO 03/26659; cited from earlier work
[8] = Example 5 (comparative): centrifugal ball mill, 90 minutes at 580 rpm

Sequence of serotonin reuptake site (P31645 whole entry): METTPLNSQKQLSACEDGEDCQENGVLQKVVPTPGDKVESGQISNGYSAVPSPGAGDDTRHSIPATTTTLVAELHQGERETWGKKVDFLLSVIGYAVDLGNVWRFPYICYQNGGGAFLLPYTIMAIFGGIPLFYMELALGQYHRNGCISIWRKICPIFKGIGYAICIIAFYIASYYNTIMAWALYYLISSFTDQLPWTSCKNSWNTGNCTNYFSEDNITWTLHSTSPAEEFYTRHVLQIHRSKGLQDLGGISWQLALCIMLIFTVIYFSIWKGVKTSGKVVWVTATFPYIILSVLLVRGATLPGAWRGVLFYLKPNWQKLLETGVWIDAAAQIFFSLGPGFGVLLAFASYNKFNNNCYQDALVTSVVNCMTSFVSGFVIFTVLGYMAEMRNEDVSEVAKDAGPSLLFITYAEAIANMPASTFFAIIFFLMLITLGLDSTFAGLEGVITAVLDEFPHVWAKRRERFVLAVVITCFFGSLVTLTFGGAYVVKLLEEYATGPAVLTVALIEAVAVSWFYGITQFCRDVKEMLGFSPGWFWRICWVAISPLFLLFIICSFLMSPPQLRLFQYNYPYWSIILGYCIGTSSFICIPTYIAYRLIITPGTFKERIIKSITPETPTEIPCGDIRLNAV
Sequence of histamine H1 receptor (P35367 whole entry): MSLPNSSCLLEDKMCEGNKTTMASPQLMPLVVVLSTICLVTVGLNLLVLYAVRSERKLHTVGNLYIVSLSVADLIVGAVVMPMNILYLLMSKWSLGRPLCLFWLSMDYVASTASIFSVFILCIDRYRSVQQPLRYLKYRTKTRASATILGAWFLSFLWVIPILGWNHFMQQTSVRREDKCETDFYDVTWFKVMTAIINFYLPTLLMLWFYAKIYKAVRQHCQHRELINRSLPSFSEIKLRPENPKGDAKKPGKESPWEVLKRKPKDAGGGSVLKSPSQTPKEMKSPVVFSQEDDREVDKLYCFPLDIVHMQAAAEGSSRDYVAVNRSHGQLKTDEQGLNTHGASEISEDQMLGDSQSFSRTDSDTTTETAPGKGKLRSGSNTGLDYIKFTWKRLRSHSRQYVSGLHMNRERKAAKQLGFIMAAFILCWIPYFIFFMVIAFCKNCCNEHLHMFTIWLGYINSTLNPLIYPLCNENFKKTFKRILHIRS
Sequence of serotonin 5-HT2A receptor (P28223 whole entry): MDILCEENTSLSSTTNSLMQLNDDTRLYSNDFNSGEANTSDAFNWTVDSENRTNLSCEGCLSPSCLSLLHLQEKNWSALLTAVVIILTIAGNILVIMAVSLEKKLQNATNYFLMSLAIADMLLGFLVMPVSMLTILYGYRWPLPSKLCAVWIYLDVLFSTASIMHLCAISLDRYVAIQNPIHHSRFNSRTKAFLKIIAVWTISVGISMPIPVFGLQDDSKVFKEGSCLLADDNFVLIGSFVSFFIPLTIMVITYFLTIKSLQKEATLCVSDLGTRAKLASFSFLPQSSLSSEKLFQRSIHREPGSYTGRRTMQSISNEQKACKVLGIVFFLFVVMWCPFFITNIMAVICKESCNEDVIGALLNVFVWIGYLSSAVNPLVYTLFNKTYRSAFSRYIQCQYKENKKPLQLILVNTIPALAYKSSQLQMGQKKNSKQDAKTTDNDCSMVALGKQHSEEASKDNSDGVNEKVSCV

O=C1CCc2ccc(OCCCCN3CCN(c4cccc(Cl)c4Cl)CC3)cc2N1 [Aripiprazole Form II, 7-{4-[4-(2,3-dichlorophenyl)-1-piperazinyl]-butoxy}-3,4-dihydro-2(1H)-quinolinone]
Type C content of milled sample by XRD ([1]; Example 1A: conical mill, 470 micron screen, 4710 rpm): less than 5% | Type C content of milled sample by XRD ([1]; Example 1B: conical mill, 830 microns screen, 1315 rpm): less than 5 % by weight | Type C content of milled sample by XRD ([1]; Example 2: ground with mortar and pestle about 1 min): less than 5% | Type C content of milled sample by XRD ([1]; Example 3A: micronizer, Feeding Air 5.0 bars, Grinding Air 4.0 bars): did not contain Type_C | Type C content of milled sample by XRD ([1]; Example 3B: micronizer, Feeding Air 3.0 bars, Grinding Air 2.0 bars): did not contain Type_C | Type C content of milled sample by XRD ([1]; Example 3C: micronizer, 4 kg, Feeding Air 6.0 bars, Grinding Air 5.0 bars): did not contain Type_C | transformation to Type C by XRD ([1]; Example 4A and 4B: frozen at −10° C. to −20° C. 24 hours, conical mill 470 microns/4710 or 830 microns/1315 rpm): not transformed to Type C | Type C content after milling by XRD [1, 8]: stark increase in the content of Type C | crystallinity after milling by XRD [1, 8]: crystallinity of the sample decreased | polymorphic transformation on heating [2]: transformation to Type C

O=C1CCc2ccc(OCCCCN3CCN(c4cccc(Cl)c4Cl)CC3)cc2N1 [Aripiprazole, 7-{4-[4-(2,3-dichlorophenyl)-1-piperazinyl]-butoxy}-3,4-dihydro-2(1H)-quinolinone]
affinity for serotonin 5-HT2A receptor [3]: high affinity | affinity for the serotonin reuptake site (serotonin reuptake site): moderate affinity | affinity for serotonin 5-HT1A receptor [4]: high affinity | affinity for histamine H1 receptor (histamine H1 receptor): moderate affinity | affinity for serotonin 5-HT2C receptor [5]: moderate affinity | affinity for α1-adrenergic receptor (α1-adrenergic receptor): moderate affinity | affinity for cholinergic muscarinic receptors [6]: no appreciable affinity

O=C1CCc2ccc(OCCCCN3CCN(c4cccc(Cl)c4Cl)CC3)cc2N1 [anhydride aripiprazole]
hygroscopicity [7]: significantly hygroscopic
